# Assay results from ChEMBL document CHEMBL5634134, “Design, synthesis, and biological evaluation of novel 4,4'-bipyridine derivatives acting as CDK9-Cyclin T1 protein-protein interaction inhibitors against triple-negative breast cancer” (Eur J Med Chem, 2023).
# Activity calls are given as the source filed them. The rule behind the calls is not given here.
# How the values were obtained:
# [1] = Toxicity in athymic BALB/c mouse implanted with mouse 4T1 cells assessed as liver tissue damage at 12.5 to 25 mg/kg, ip administered for 14 days; assay type: organism-based; conditions: in vivo, 336 h, dose 12.5-25 mg/kg, time 14 day
# [2] = Toxicity in mouse assessed as animal death at 62.5 to 500 mg/kg, ip administered for 16 days; assay type: organism-based; conditions: in vivo, 384 h, dose 62.5-500 mg/kg, time 16 day
# 4T1 [3] = experiment: In vivo inhibition of RNA Pol II phosphorylation at ser2 in athymic BALB/c mouse implanted with mouse 4T1 cells at 12.5 to 25 mg/kg, ip administered once daily for 14 days by Western blot analysis; assay type: functional, organism-based; conditions: dose 12.5-25 mg/kg, time 14.0 day
# MDA-MB-231 [4] = experiment: Induction of apoptosis in human MDA-MB-231 cells assessed as increase in cleaved PARP-1 protein incubated for 24 hrs by Western blotting analysis; assay type: functional, cell-based; conditions: dose 37-1000 nM
# MDA-MB-231 [5] = experiment: Effect on C-Myc protein expression in human MDA-MB-231 cells transfected with shCDK9 at 300 nM by Western blot analysis; assay type: functional, cell-based
# MDA-MB-231 [6] = experiment: Induction of apoptosis in human MDA-MB-231 cells assessed as early apoptotic cells at 1000 nM incubated for 72 hrs by Annexin V-FITC/PI staining based flow cytometry analysis (reference value: 0.66 %); assay type: functional
# [7] = MRT (0 to infinity) in Sprague-Dawley rat at 50 mg/kg, ip measured afer 24 hrs by LC-MS/MS analysis; assay type: ADME, organism-based; conditions: in vivo
# [8] = target: Cyclin-dependent kinase 12 (Homo sapiens) (UniProt Q9NYV4); experiment: Binding affinity to CDK12 in human MDA-MB-231 cells asssesed as thermal stabilization at 1 uM incubated for 8 hrs under 45 to 65 degreeC by Western blot analysis; assay type: cell-based
# MDA-MB-231 [9] = experiment: Effect on Mcl-1 protein expression in human MDA-MB-231 cells transfected with shCDK9 at 300 nM by Western blot analysis; assay type: functional, cell-based
# [10] = Cytotoxicity against human MCF-10A cells assessed as inhibition of cell growth incubated for 72 hrs by MTT assay; assay type: toxicity, cell-based
# [11] = Cytotoxicity against human MRC5 cells assessed as inhibition of cell growth incubated for 72 hrs by MTT assay; assay type: toxicity, cell-based
# 4T1 [12] = experiment: Antitumor activity against mouse 4T1 cells implanted in athymic BALB/c mouse assessed as reduction in tumor weight at 12.5 to 25 mg/kg, ip administered for 14 days; assay type: functional, organism-based; conditions: dose 12.5-25 mg/kg, time 14.0 day
# MDA-MB-231 [13] = experiment: Inhibition of colony formation in human MDA-MB-231 cells at 20 nM incubated for 10 days by crystal violet staining based analysis; assay type: functional, cell-based; conditions: time 10.0 day
# MDA-MB-231 [14] = experiment: Induction of apoptosis in human MDA-MB-231 cells assessed as late apoptotic cells at 333 nM incubated for 72 hrs by Annexin V-FITC/PI staining based flow cytometry analysis (reference value: 4.04 %); assay type: functional
# [15] = target: Cyclin-dependent kinase 7/ cyclin H (Homo sapiens) (UniProt P51946+P50613); experiment: Inhibition of Flag-tagged CDK7(unknown origin)/Cyclin H (unknown origin) transfected in HEK293T cells at 1 to 3 uM incubated for 8 hrs by co-immunoprecipitation assay; assay type: cell-based; conditions: dose 1-3 µM
# MDA-MB-231 [16] = experiment: Induction of apoptosis in human MDA-MB-231 cells assessed as necrotic cells at 111 nM incubated for 72 hrs by Annexin V-FITC/PI staining based flow cytometry analysis (reference value: 0.49 %); assay type: functional
# [17] = target: Cyclin-dependent kinase 2 (Homo sapiens) (UniProt P24941); experiment: Binding affinity to CDK2 in human MDA-MB-231 cells asssesed as thermal stabilization at 1 uM incubated for 8 hrs under 45 to 65 degreeC by Western blot analysis; assay type: cell-based
# [18] = Toxicity in athymic BALB/c mouse implanted with mouse 4T1 cells assessed as spleen tissue damage at 12.5 to 25 mg/kg, ip administered for 14 days; assay type: organism-based; conditions: in vivo, 336 h, dose 12.5-25 mg/kg, time 14 day
# [19] = Toxicity in mouse assessed as death rate at 750 mg/kg, ip administered for 16 days relative to control; assay type: organism-based; conditions: in vivo, time 16 day, read-out: Activity
# MDA-MB-231 [20] = experiment: Induction of apoptosis in human MDA-MB-231 cells assessed as necrotic cells at 1000 nM incubated for 72 hrs by Annexin V-FITC/PI staining based flow cytometry analysis (reference value: 0.49 %); assay type: functional
# MDA-MB-231 [21] = experiment: Antiproliferative activity against human MDA-MB-231 cells assessed as decrease in sphere size by measuring sphere diameter at 100 nM incubated for 10 days by confocal laser scanning microscopy (reference value: 508.27 micrometer); assay type: functional; conditions: time 10 day
# MDA-MB-231 [22] = experiment: Antimetastasis activity in human MDA-MB-231 cells assessed as wound closure at 0.1 uM and measured upto 48 hrs by inverted microscope analysis (reference value: 46 %); assay type: functional
# MDA-MB-231 [23] = experiment: Induction of apoptosis in human MDA-MB-231 cells assessed as early apoptotic cells at 37 nM incubated for 72 hrs by Annexin V-FITC/PI staining based flow cytometry analysis (reference value: 0.66 %); assay type: functional
# [24] = Toxicity in mouse assessed as increase in body weight at 62.5 to 500 mg/kg, ip administered for 16 days; assay type: organism-based; conditions: in vivo, 384 h, dose 62.5-500 mg/kg, time 16 day
# MDA-MB-231 [25] = experiment: Inhibition of cell invasion in human MDA-MB-231 cells incubated for 24 hrs by crystal violet staining based transwell matrix penetration assay; assay type: functional; conditions: dose 37-1000 nM
# [26] = Toxicity in athymic BALB/c mouse implanted with mouse 4T1 cells assessed as kidney tissue damage at 12.5 to 25 mg/kg, ip administered for 14 days; assay type: organism-based; conditions: in vivo, 336 h, dose 12.5-25 mg/kg, time 14 day
# [27] = Toxicity in athymic BALB/c mouse implanted with mouse 4T1 cells assessed as body weight loss at 25 mg/kg, ip administered for 14 days; assay type: organism-based; conditions: in vivo, 336 h, time 14 day
# MDA-MB-231 [28] = experiment: Induction of apoptosis in human MDA-MB-231 cells assessed as necrotic cells at 37 nM incubated for 72 hrs by Annexin V-FITC/PI staining based flow cytometry analysis (reference value: 0.49 %); assay type: functional
# [29] = Toxicity in athymic BALB/c mouse implanted with mouse 4T1 cells assessed as body weight loss at 12.5 mg/kg, ip administered for 14 days; assay type: organism-based; conditions: in vivo, 336 h, time 14 day
# 4T1 [30] = experiment: Antitumor activity against mouse 4T1 cells implanted in athymic BALB/c mouse assessed as increase in cleaved PARP at 12.5 to 25 mg/kg, ip administered once daily for 14 days by Western blot analysis; assay type: functional, organism-based; conditions: dose 12.5-25 mg/kg, time 14.0 day
# MDA-MB-231 [31] = experiment: Antiproliferative activity against human MDA-MB-231 cells assessed as decrease in sphere size by measuring diameter at 100 nM incubated for 10 days in presence of olaparib by confocal laser scanning microscopy; assay type: functional; conditions: time 10 day
# MDA-MB-231 [32] = experiment: Induction of apoptosis in human MDA-MB-231 cells assessed as viable cells at 1000 nM incubated for 72 hrs by Annexin V-FITC/PI staining based flow cytometry analysis (reference value: 94.81 %); assay type: functional; conditions: read-out: Activity
# MDA-MB-231 [33] = experiment: Inhibition of colony formation in human MDA-MB-231 cells assessed as reduction in colony number incubated for 10 days by crystal violet staining based analysis; assay type: functional, cell-based; conditions: dose 12-1000 nM, time 10.0 day
# 4T1 [34] = experiment: Antitumor activity against mouse 4T1 cells implanted in athymic BALB/c mouse assessed as tumor inhibition rate at 25 mg/kg, ip administered for 14 days relative to control; assay type: functional; conditions: 4T1, 336 h, time 14 day
# Sequence of Cyclin-dependent kinase 12 (Homo sapiens) (Q9NYV4 whole entry, looked up): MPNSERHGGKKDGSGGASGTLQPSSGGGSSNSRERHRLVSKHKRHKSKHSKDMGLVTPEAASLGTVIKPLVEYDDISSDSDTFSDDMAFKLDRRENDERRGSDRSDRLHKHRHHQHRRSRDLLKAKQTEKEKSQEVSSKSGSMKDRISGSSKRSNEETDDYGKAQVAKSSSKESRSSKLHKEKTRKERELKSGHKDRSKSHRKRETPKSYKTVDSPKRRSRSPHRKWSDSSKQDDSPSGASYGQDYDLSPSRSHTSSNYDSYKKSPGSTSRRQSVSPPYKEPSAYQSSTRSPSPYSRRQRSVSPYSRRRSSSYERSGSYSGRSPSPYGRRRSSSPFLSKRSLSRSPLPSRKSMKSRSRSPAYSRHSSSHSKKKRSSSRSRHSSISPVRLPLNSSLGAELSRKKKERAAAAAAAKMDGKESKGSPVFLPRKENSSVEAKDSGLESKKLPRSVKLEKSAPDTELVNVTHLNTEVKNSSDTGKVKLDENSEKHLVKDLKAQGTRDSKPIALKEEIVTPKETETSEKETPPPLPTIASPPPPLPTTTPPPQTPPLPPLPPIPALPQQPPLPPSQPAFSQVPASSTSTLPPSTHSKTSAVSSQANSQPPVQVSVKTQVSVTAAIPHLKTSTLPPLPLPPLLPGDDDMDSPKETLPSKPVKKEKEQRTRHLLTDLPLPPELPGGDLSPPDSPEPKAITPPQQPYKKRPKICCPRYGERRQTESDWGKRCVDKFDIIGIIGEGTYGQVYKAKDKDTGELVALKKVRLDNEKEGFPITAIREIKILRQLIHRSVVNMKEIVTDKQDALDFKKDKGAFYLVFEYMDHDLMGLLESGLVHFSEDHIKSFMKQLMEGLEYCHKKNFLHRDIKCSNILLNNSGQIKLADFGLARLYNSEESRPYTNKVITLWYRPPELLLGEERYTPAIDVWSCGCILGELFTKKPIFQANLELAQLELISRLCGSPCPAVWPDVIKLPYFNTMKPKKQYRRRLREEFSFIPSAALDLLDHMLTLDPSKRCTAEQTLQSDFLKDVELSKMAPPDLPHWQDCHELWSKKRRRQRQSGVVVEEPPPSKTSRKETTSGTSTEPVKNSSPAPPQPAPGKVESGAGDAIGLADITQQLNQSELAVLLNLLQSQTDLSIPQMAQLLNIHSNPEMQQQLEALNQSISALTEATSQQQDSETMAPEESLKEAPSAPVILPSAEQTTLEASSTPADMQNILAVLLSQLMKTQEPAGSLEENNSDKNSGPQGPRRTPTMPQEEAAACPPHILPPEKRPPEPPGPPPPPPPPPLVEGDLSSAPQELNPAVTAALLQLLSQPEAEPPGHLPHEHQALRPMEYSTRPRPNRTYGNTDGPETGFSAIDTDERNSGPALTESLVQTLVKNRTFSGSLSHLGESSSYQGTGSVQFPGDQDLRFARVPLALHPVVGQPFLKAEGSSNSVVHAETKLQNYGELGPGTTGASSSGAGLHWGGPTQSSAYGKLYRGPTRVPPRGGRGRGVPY
smiles,measurement,setting,value
COc1ccc(C(=O)Nc2cc(-c3ccnc(N4CCC(O)CC4)c3)ccn2)cc1,Activity,[1],Non-Toxic
same,Activity,[2],Non-Toxic
same,inhibition,4T1 [3],Active
same,Activity,MDA-MB-231 [4],Dose-Dependent Effect
same,Activity,MDA-MB-231 [5],inactive
same,Activity,MDA-MB-231 [6],14.2%
same,MRT inf,[7],1.26 h
same,Activity,[8],inactive
same,Activity,MDA-MB-231 [9],inactive
same,IC50 at 72 h,[10],498 nM
same,IC50 at 72 h,[11],335 nM
same,Activity,4T1 [12],Active
same,inhibition,MDA-MB-231 [13],inactive
same,Activity,MDA-MB-231 [14],48.6%
same,inhibition,[15],inactive
same,Activity,MDA-MB-231 [16],0.17%
same,Activity,[17],inactive
same,Activity,[18],Non-Toxic
same,mortality at 384 h,[19],40%
same,Activity,MDA-MB-231 [20],0%
same,Activity,MDA-MB-231 [21],429.81 um
same,Activity,MDA-MB-231 [22],18%
same,Activity,MDA-MB-231 [23],3.14%
same,Activity,[24],Non-Toxic
same,inhibition,MDA-MB-231 [25],Dose-Dependent Effect
same,Activity,[26],Non-Toxic
same,Activity,[27],Toxic
same,Activity,MDA-MB-231 [28],0.17%
same,Activity,[29],Non-Toxic
same,Activity,4T1 [30],Active
same,Activity,MDA-MB-231 [31],310.56 um
same,viability at 1 µM,MDA-MB-231 [32],14.2%
same,inhibition,MDA-MB-231 [33],Dose-Dependent Effect
same,inhibition in vivo at 25 mg/kg,4T1 [34],86.1%
